Legend:
[1] = tested on: myeloid and lymphoid cell types, red blood cells, platelets; settings: Phase 3, 300 mg daily, month 6
Method: Hematological parameters were measured in a Phase 3 study of dexpramipexole in ALS. Because of the high rate of mortality among ALS patients, including subjects in the Phase 3 trial, hematology parameters obtained at the month 6 visit were chosen for analysis to remove the effect of study dropouts in later months.

eosinophils [2] = type: in vivo; settings: minipigs, 7.5, 25, 75/50 mg/kg daily oral gavage, 39 weeks
Method: In a 39-week repeat-dose toxicology study, minipigs were dosed at 0, 7.5, 25, and 75 mg/kg dexpramipexole by daily oral gavage through Study Day 45 and at 0, 7.5, 25, and 50 mg/kg dexpramipexole from Study Day 46 to study completion.

[3] = tested on: Siglec-F lo IL5Rα hi positive cells (developing B cells, basophils and other cell populations); settings: mice, 30 mg/kg or 100 mg/kg daily gavage, 70 days, either dose
Method: (§1) The study consisted of 3 groups of BALB/cByJ mice (10 mice per group). Mice received daily gavage treatments of either 30 mg/kg, 100 mg/kg of dexpramipexole or vehicle control for 70 days. Bone marrow was processed into single cell suspensions and cells were stained with fluorescent conjugate antibodies to analyze the developmental stages of cells by flow cytometry. […] The columns depict the mean for each group and the error bar indicates the standard error of the mean. The asterisks denote statistical significance between treatment groups and the vehicle control group by one-way ANOVA (* p≦0.05, ** p≦0.01).

[4] = tested on: Sca1+ c-Kit+ lineage negative cells (multipotent hematopoietic stem cells); settings: mice, 30 mg/kg or 100 mg/kg daily gavage, 70 days, either dose
Method: as §1

eosinophils [5] = tested on: eosinophils
Method: (§2) In FIG. 2A the time period marked “W” represents the end of the 4-week washout following the month 3 time point.
The phase 3 clinical trial was a double-blind study of dexpramipexole in ALS patients randomized 1:1 to placebo or dexpramipexole 300 mg daily treatment. Hematology parameters were collected as part of routine safety monitoring. Eosinophil and basophil counts were retrospectively analyzed by visit.
Eosinophil levels were summarized over available time points and analyzed by ANOVA testing the effect of treatment vs. placebo on mean changes in serum eosinophil counts from baseline. Subjects with baseline eosinophils from 0 to 0.02×10^9/L (constituting less than 2% of all subjects analyzed) were censored from the primary analysis because of the inherent limitation to observe a decline from baseline.
Statistical analysis of the change from baseline was performed at month 6 to remove the effect of study dropouts in later months.

eosinophils [6] = tested on: eosinophils; remark: listed apart in the source
Method: as §2
The Phase 2 trial was a two-part, double-blind study that evaluated the safety, tolerability, and clinical effects of dexpramipexole in ALS patients.
In Part 1, subjects were randomized to placebo (n=27), 50 mg/day (n=23), 150 mg/day (n=26), or 300 mg/day dexpramipexole (n=26) for 12 weeks.

Structure (SMILES): CCCN[C@@H]1CCc2nc(N)sc2C1 [dexpramipexole, (6R)-2-amino-4,5,6,7-tetrahydro-6-(propylamino) benzothiazole]
- change of all myeloid and lymphoid cell types measured [1]: statistically significant mean reductions from baseline
- effect on eosinophils (eosinophils [2]): dose- and time-dependent reduction in eosinophils
- Siglec-F lo IL5Rα hi positive cells in bone marrow vs vehicle control [3]: lowered
- number of Sca1+ c-Kit+ lineage negative cells in bone marrow vs vehicle control [4]: lowered
- peripheral blood eosinophil count (eosinophils [5]; Phase 3, after 8-12 weeks of treatment, persisted for the duration of the trial): profound decrease
- eosinophil counts in subject with elevated eosinophil counts at baseline (eosinophils [5]; Phase 3 subject with highest baseline eosinophil count, through month 12): decrease in eosinophil counts
- effect on eosinophil counts (eosinophils [6]; Phase 2 trial in ALS subjects): dose- and time-dependent decrease in eosinophil counts
- eosinophil counts in subject with hypereosinophilia at baseline (eosinophils [6]; one Phase 2 subject, Part 2 baseline, through month 12): decrease in eosinophil counts
